# From patent US20160000775A1, “USE OF HIGH DOSE LAQUINIMOD FOR TREATING MULTIPLE SCLEROSIS” (Teva Pharmaceutical Industries, Ltd., priority 2012, published 2016)
# Like-named read-outs stand apart in the source and are kept apart here.
# What was measured:
# subjects with RRMS [1] = experiment: ALLEGRO Phase III clinical trial, laquinimod 0.6 mg over placebo, double-blind; assay type: in vivo, human; conditions: laquinimod 0.6 mg vs placebo, 24 months
# Procedure: ALLEGRO and BRAVO are two clinical trials reported in, e.g., PCT International Application Publication No. WO/2010/147665 ([…] et al.). ALLEGRO was a study performed in subjects with RRMS to assess the efficacy, safety and tolerability of laquinimod 0.6 mg over placebo in a double-blind design. The treatment duration in this study was 24 months and it enrolled 1,106 patients equally distributed between laquinimod 0.6 mg and placebo arms. The primary endpoint was annualized relapse rate (ARR). Secondary endpoints were gadolinium-enhancing (GdE)-T1 and new-T2 lesions, time to Expanded Disability Status Scale (EDSS) progression confirmed at 3 months and multiple sclerosis functional composite (MSFC) z-score. In ALLEGRO the primary endpoint (ARR) and three key secondary endpoints were met.
# subjects with RRMS [2] = experiment: BRAVO Phase III clinical trial, laquinimod 0.6 mg over placebo with reference arm IFN-β-1a (Avonex®); assay type: in vivo, human; conditions: vs placebo, 24 months
# From the text: ALLEGRO and BRAVO are two clinical trials reported in, e.g., PCT International Application Publication No. WO/2010/147665 ([…] et al.). […] The primary endpoint was ARR. Secondary endpoints were Brain atrophy, time to EDSS progression confirmed at 3 months and MSFC z-score. […] One of the basic assumptions used to assess the sample size for the study was that treatment with laquinimod will reduce the patient population ARR by 25% or more when compared to the placebo group.
# [3] = test system: subjects with relapsing remitting multiple sclerosis (RRMS); experiment: Clinical trial MS-LAQ-305 (Phase III), oral laquinimod 0.6 mg/day or 1.2 mg/day vs placebo; assay type: in vivo, human
# Procedure: A multinational, multicenter, randomized, double-blind, parallel-group, placebo-controlled study followed by an active treatment (clinical trial MS-LAQ-305) is conducted to evaluate the efficacy, safety and tolerability of two doses of oral administration of laquinimod (0.6 mg/day or 1.2 mg/day) laquinimod in subjects with relapsing remitting multiple sclerosis (RRMS). Study Duration • Screening period: up to 1 month. • Double-blind Placebo-controlled (DBPC) period (Period 1): At least 15 months, but not more than 24 months of once-daily, oral administration of either laquinimod 0.6 mg, 1.2 mg or matching oral placebo. DBPC period for all subjects is declared closed when all ongoing enrolled subjects complete at least 15 months of treatment. • Active-treatment (AT) period (Period 2): In this period (24 months), subjects who are assigned to either 0.6 mg or 1.2 mg daily oral laquinimod during the DBPC period continue with the same treatment assignment, whereas those who are assigned to placebo receive 1.2 mg daily oral laquinimod. Eligible subjects (approximately 1,800) are randomized in a 1:1:1 ratio into one of the following treatment arms: • 1. Laquinimod 0.6 mg: two capsules, one containing 0.6 mg laquinimod and the other containing matching placebo, administered orally once daily. • 2. Laquinimod 1.2 mg: two capsules containing 0.6 mg laquinimod administered orally once daily. • 3. Matching placebo: two capsules containing placebo (matching to the 0.6 mg) administered orally once daily. The study comprises of two treatment periods, Double-blind Placebo-controlled (DBPC) and Active-treatment (AT). Subjects who complete 24 months on study drug in Period 1 or complete at least 15 months on study drug when Period 1 is declared closed continue on to Period 2. The following assessments are performed at the specified time points: • 1. Vital signs are measured at each study visit. • 2. A physical examination is performed at months -1 (screening), 0 (baseline) 1, 3, 6, and every 6 months thereafter, ETD (if applicable) and until completion visit of Period 1. During Period 2, a physical examination is performed at months 0AT (baseline, completion visit of Period 1), 1AT, 3AT, 6AT and every 6 months thereafter, until completion/ETD of Period 2. • 3. The following safety clinical laboratory tests are performed: • (a) Complete blood count (CBC) with differential-at all scheduled visits during Periods 1 and 2. • (b) Serum chemistry (including electrolytes, liver enzymes, urea, creatinine, calculated Glomerular Filtration Rate (GFR)-at screening and prior to each MRI scan, glucose, total protein, albumin, direct and total bilirubin and pancreatic amylase)-at all scheduled visits during the DBPC and AT periods. Calculated Glomerular Filtration Rate (GFR) is done at screening and prior to each MRI scan in both study periods. • (c) Lipid profile (total cholesterol, HDL, LDL, triglycerides)-at baseline and every 12 months during the DBPC and AT periods. • (d) Urinalysis-at the screening visit. • (e) Serum β-hCG (human choriogonadotropin beta) in women of child-bearing potential-at each scheduled study visit during the DBPC and AT periods. • (f) Urine β-hCG test in women of child-bearing potential-at baseline (month 0) and at all scheduled visits during the DBPC and AT periods. • (g) Starting after visit Month 3, between scheduled visits, a rapid urine β-hCG test is performed in women of child-bearing potential every 28 (±2) days. The subject is contacted within 72 hours after the scheduled test is performed and asked specific questions regarding the test. In case of suspected pregnancy (positive urine β-hCG test result) the caller instructs the subject to make sure that the study drug has been discontinued and the subject arrives at the site as soon as possible (within 10 days) with all study drugs-during the DBPC and AT periods. • 4. […]
# relapsing MS = conditions: cited from earlier work
# MS = conditions: 0.3 mg/day oral (Comi, 2007); cited from earlier work
# [4] = in vivo; cited from earlier work
# [5] = corrected post-hoc analysis with two baseline MRI covariates
# [6] = daily oral 1.2 mg compared to 0.6 mg laquinimod or placebo
smiles,measurement,setting,value
"CCN(C(=O)c1c(O)c2c(Cl)cccc2n(C)c1=O)c1ccccc1 [Laquinimod, laquinimod]",ARR % reduction,subjects with RRMS [1],23%
same,Brain Atrophy (exploratory endpoint) % reduction,subjects with RRMS [1],32.8%
same,Cumulative number of GdE T1 lesions % reduction,subjects with RRMS [1],37%
same,Cumulative number of new T2 lesions % reduction,subjects with RRMS [1],30%
same,EDSS Progression (3 m confirmation) % reduction,subjects with RRMS [1],36%
same,MSFC z-score % reduction,subjects with RRMS [1],51%
same,"ARR % reduction, Corrected",subjects with RRMS [2]; [5],21.3%
same,"Brain Atrophy % reduction, Corrected",subjects with RRMS [2]; [5],27.4%
same,"Cumulative number of GdE T1 lesions % reduction, Corrected",subjects with RRMS [2]; [5],21.7%
same,"Cumulative number of new T2 lesions (exploratory endpoint) % reduction, Corrected",subjects with RRMS [2]; [5],18.7%
same,"EDSS Progression (3 m confirmation) % reduction, Corrected",subjects with RRMS [2]; [5],33.5%
same,"MSFC % reduction, Corrected",subjects with RRMS [2]; [5],77.1%
same,"ARR % reduction, Corrected","subjects with RRMS [2]; corrected post-hoc analysis with two baseline MRI covariates, listed as laquinimod",21.3%
same,"ARR % reduction, Original",subjects with RRMS [2]; original analysis,17.7%
same,"Brain Atrophy % reduction, Original",subjects with RRMS [2]; original analysis,27.6%
same,"Cumulative number of GdE T1 lesions % reduction, Original",subjects with RRMS [2]; original analysis,21.5%
same,"Cumulative number of new T2 lesions (exploratory endpoint) % reduction, Original",subjects with RRMS [2]; original analysis,16.5%
same,"EDSS Progression (3 m confirmation) % reduction, Original",subjects with RRMS [2]; original analysis,31.3%
same,"MSFC % reduction, Original",subjects with RRMS [2]; original analysis,77.7%
same,"ARR % reduction, Original","subjects with RRMS [2]; original analysis, listed as laquinimod",17.7%
same,Efficacy in treating RRMS patients with respect to all endpoints,[3]; 1.2 mg/day compared to 0.6 mg/day laquinimod,improved efficacy
same,Fatigue and functional status,[3]; 1.2 mg/day compared to 0.6 mg/day laquinimod or placebo,maintained or improved
same,Time to first confirmed relapse,[3]; daily oral 1.2 mg compared to 0.6 mg laquinimod and placebo,prolonged time to first confirmed relapse
same,Accumulation of disability as measured by the MSFC score or Timed 25-foot walk (T25FW),[3]; [6],reduced the accumulation of disability
same,Annualized relapse rate,[3]; [6],lower annualized relapse relate
same,"Brain atrophy, percent brain volume change from baseline to month 15",[3]; [6],reduced brain atrophy
same,"Brain atrophy, percent change in brain volume from baseline to month 24",[3]; [6],reduced brain atrophy
same,"Functional status and general health, Short-Form general health survey (SF-36)",[3]; [6],improved functional status and general health
same,"MRI-monitored disease activity (enhancing T1, new hypointense T1, new T2 lesion numbers and lesion volume changes)",[3]; [6],reduced MRI-monitored disease activity
same,Neuroprotection,[3]; [6],more effective in providing neuroprotection
same,Number of confirmed relapses,[3]; [6],reduced number of confirmed relapses
same,Symbol Digit Modalities Test (SDMT) score,[3]; [6],improved Symbol Digit Modalities Test (SDMT) score
same,Time to Confirmed Disease Progression (CDP),[3]; [6],prolonged time to CDP
same,Development of active MRI lesions,"relapsing MS; 0.3 mg/day oral, relapsing MS (RRMS and SPMS) (Polman, 2005)",reduce development of active MRI lesions
same,Development of active MRI lesions,"relapsing MS; relapsing MS, dose not stated (Polman, 2005)",reduce development of active MRI lesions
same,MRI and clinical effect as compared to placebo,MS,neither MRI nor clinical effect
same,Oral bioavailability,[4],high
